Assays:
[1] = system: Mouse STC-1 cells; assay: STC-1 GLP-1 assay (GLP-1 secretion); type: cell-based; settings: Mouse STC-1 cells, GLP-1 secretion, 2 h; read-out: Mouse STC-1 HTRF GLP-1 Activity (EC50)
Outline: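 Secreted active GLP-1 was measured by HTRF after overnight room-temperature incubation of supernatant with the conjugates. Supernatants came from a 2 h, 37° C. compound exposure (12-point half-log series) in HBSS with DPP-IV and protease inhibitors and 0.1% fatty acid free BSA. STC-1 cells had been seeded two days earlier in stripped-serum DMEM; EC50 reported.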

[2] = Pharmacokinetic profile in mice after oral gavage; type: in vivo, mouse; settings: mouse; fasted male Hilltop mice, 10 mg/kg oral gavage, plasma; read-out: Cmax
Outline: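 Plasma exposure (Cmax, AUC) by non-compartmental analysis of LC-MS/MS data, orbital blood taken at 0, 0.25, 0.5, 1, 2 and 4 h, each value averaging three mice. Dosing: 10 mg/kg oral gavage to overnight-fasted male Hilltop mice (8 weeks), vehicle PEG400/CMC/Tween-80.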

SMILES: N#Cc1ccc(CCNC(=O)[C@@H]2CCN2c2cc(N3CCC(CCCC(=O)NCCCCNC(=N)N)CC3)nc(C(F)(F)F)n2)cc1 [Compound 283, (S)-N-(4-cyanophenethyl)-1-(6-(4-(4-((4-guanidinobutyl)amino)-4-oxobutyl)piperidin-1-yl)-2-(trifluoromethyl)pyrimidin-4-yl)azetidine-2-carboxamide]
- EC50 [1]: 0.1 to 0.999 µM
- Cmax [2]: 2.7 ng/mL

SMILES: N#Cc1ccc(CCNC(=O)[C@@H]2CCCN(c3cc(N4CCC(CCNC(=O)NCCC(=O)O)CC4)nc(C(F)(F)F)n3)C2)cc1 [Compound 347, (R)-3-(3-(2-(1-(6-(3-((4-cyanophenethyl)carbamoyl)piperidin-1-yl)-2-(trifluoromethyl)pyrimidin-4-yl)piperidin-4-yl)ethyl)ureido)propanoic acid]
- EC50 [1]: 0.1 to 0.999 µM
- Cmax [2]: 30 ng/mL

SMILES: CN(C)CCC1CCN(c2cc(N3CCC[C@H]3C(=O)NCCc3ccc(C(F)(F)F)cc3)nc(C(F)(F)F)n2)CC1 [Compound 5]
- EC50 [1]: 0.1 to 0.999 µM
- Cmax [2]: 338 ng/mL

SMILES: O=C(CCCC1CCN(c2cc(N3CCC[C@H]3C(=O)NCCc3ccc(C(F)(F)F)cc3)nc(C(F)(F)F)n2)CC1)NCCCS(=O)(=O)O [Compound 60, (S)-3-(4-(1-(2-(trifluoromethyl)-6-(2-((4-(trifluoromethyl)phenethyl)carbamoyl)pyrrolidin-1-yl)pyrimidin-4-yl)piperidin-4-yl)butanamido)propane-1-sulfonic acid]
- EC50 [1]: < 0.1 µM
- Cmax [2]: 4.3 ng/mL

SMILES: O=C(O)CNS(=O)(=O)CCNC(=O)CCCC1CCN(c2cc(N3CCC[C@H]3C(=O)NCCc3ccc(C(F)(F)F)cc3)nc(C(F)(F)F)n2)CC1 [Compound 114, (S)-2-(2-(4-(1-(2-(trifluoromethyl)-6-(2-((4-(trifluoromethyl)phenethyl)-carbamoyl)-pyrrolidin-1-yl)pyrimidin-4-yl)piperidin-4-yl)butanamido)ethyl-sulfonamido)acetic acid]
- EC50 [1]: < 0.1 µM
- Cmax [2]: 4.8 ng/mL

SMILES: N#Cc1ccc(CCNC(=O)[C@@H]2CCN2c2cc(N3CCC(CCNc4c(NCCS(=O)(=O)O)c(=O)c4=O)CC3)nc(C(F)(F)F)n2)cc1 [Compound 297, (S)-2-((2-((2-(1-(6-(2-((4-cyanophenethyl)carbamoyl)azetidin-1-yl)-2-(trifluoromethyl)pyrimidin-4-yl)piperidin-4-yl)ethyl)amino)-3,4-dioxocyclobut-1-en-1-yl)amino)ethanesulfonic acid]
- EC50 [1]: 0.1 to 0.999 µM
- Cmax [2]: 11 ng/mL

SMILES: N#Cc1ccc(CCNC(=O)[C@@H]2CCCN2c2cc(N3CCC(CCNC(=O)NCCC(=O)NCCS(=O)(=O)O)CC3)nc(C(F)(F)F)n2)cc1 [Compound 113, (S)-2-(3-(3-(2-(1-(6-(2-((4-cyanophenethyl)carbamoyl)pyrrolidin-1-yl)-2-(trifluromethyl)pyrimidin-4-yl)piperidin-4-yl)ethyl)ureido)-propanamido)-ethanesulfonic acid]
- EC50 [1]: 0.1 to 0.999 µM
- Cmax [2]: 0.13 ng/mL

SMILES: COc1cc(C(F)(F)F)ccc1CCNC(=O)[C@@H]1CCN1c1cc(N2CCC(CCC(=O)NCCS(=O)(=O)O)CC2)nc(C(F)(F)F)n1 [Compound 259]
- EC50 [1]: 0.1 to 0.999 µM
- Cmax [2]: 27 ng/mL

SMILES: N#Cc1ccc(CCNC(=O)[C@@H]2CCN2c2cc(N3CCC(CCNC(=O)NCCS(N)(=O)=O)CC3)nc(C(F)(F)F)n2)cc1 [Compound 269, (S)—N-(4-cyanophenethyl)-1-(6-(4-(2-(3-(2-sulfamoylethyl)ureido)ethyl)piperidin-1-yl)-2-(trifluoromethyl)pyrimidin-4-yl)azetidine-2-carboxamide]
- EC50 [1]: < 0.1 µM
- Cmax [2]: 3.2 ng/mL

SMILES: N#Cc1ccc(CCNC(=O)[C@@H]2CCCN2c2cc(N3CCC(CCCC(=O)NCC(=O)O)CC3)nc(C(F)(F)F)n2)cc1 [Compound 103, (S)-2-(4-(1-(6-(2-((4-cyanophenethyl)carbamoyl)pyrrolidin-1-yl)-2-(trifluoromethyl)pyrimidin-4-yl)piperidin-4-yl)butanamido)acetic acid]
- EC50 [1]: < 0.1 µM
- Cmax [2]: 9.3 ng/mL

SMILES: N=C(N)N[C@@H](CCC(=O)NCCCC1CCN(c2cc(N3CCC[C@H]3C(=O)NCCc3ccc(C(F)(F)F)cc3)nc(C(F)(F)F)n2)CC1)C(=O)O [Compound 133, (S)-2-guanidino-5-oxo-5-((3-(1-(2-(trifluoromethyl)-6-((S)-2-((4-(trifluoromethyl)phenethyl)carbamoyl)pyrrolidin-1-yl)pyrimidin-4-yl)piperidin-4-yl)propyl)amino)pentanoic acid]
- EC50 [1]: < 0.1 µM
- Cmax [2]: 4.1 ng/mL

SMILES: N#Cc1ccc(CCNC(=O)[C@@H]2CCCN2c2cc(N3CCC(CCCC(=O)NCCNc4ncc(C(=O)NCCS(=O)(=O)O)cn4)CC3)nc(C(F)(F)F)n2)cc1 [Compound 112, (S)-2-(2-((2-(4-(1-(6-(2-((4-cyanophenethyl)carbamoyl)pyrrolidin-1-yl)-2-(trifluoromethyl)pyrimidin-4-yl)piperidin-4-yl)butanamido)ethyl)amino)-pyrimidine-5-carboxamido)ethanesulfonic acid]
- EC50 [1]: < 0.1 µM
- Cmax [2]: 1.1 ng/mL

SMILES: N#Cc1ccc(CCNC(=O)[C@@H]2CCN2c2cc(N3CCC(CCCC(=O)NCS(=O)(=O)O)CC3)nc(C(F)(F)F)n2)cc1 [Compound 250, (S)-(4-(1-(6-(2-((4-cyanophenethyl)carbamoyl)azetidin-1-yl)-2-(trifluoromethyl)pyrimidin-4-yl)piperidin-4-yl)butanamido)methanesulfonic acid]
- EC50 [1]: < 0.1 µM
- Cmax [2]: 7.6 ng/mL

SMILES: N#Cc1ccc(CCNC(=O)[C@@H]2CCCN2c2cc(N3CCC(CCCC(=O)NCCC(=O)NC(CO)(CO)CO)CC3)nc(C(F)(F)F)n2)cc1 [Compound 109, (S)—N-(4-cyanophenethyl)-1-(6-(4-(4-((3-((1,3-dihydroxy-2-(hydroxymethyl)propan-2-yl)amino)-3-oxopropyl)amino)-4-oxobutyl)piperidin-1-yl)-2-(trifluoromethyl)-pyrimidin-4-yl)pyrrolidine-2-carboxamide]
- EC50 [1]: 0.1 to 0.999 µM
- Cmax [2]: 3.2 ng/mL

SMILES: N#Cc1ccc(CCNC(=O)[C@@H]2CCN2c2cc(N3CCC(CCCC(=O)NC[C@@H](O)CO)CC3)nc(C(F)(F)F)n2)cc1 [Compound 261, (S)-N-(4-cyanophenethyl)-1-(6-(4-(4-(((R)-2,3-dihydroxypropyl)amino)-4-oxobutyl)piperidin-1-yl)-2-(trifluoromethyl)pyrimidin-4-yl)azetidine-2-carboxamide]
- EC50 [1]: 0.1 to 0.999 µM
- Cmax [2]: 48 ng/mL

SMILES: N#Cc1ccc(CCNC(=O)[C@@H]2CCCN2c2cc(N3CCC(CCO)CC3)nc(C(F)(F)F)n2)cc1 [Compound 22]
- EC50 [1]: < 0.1 µM
- Cmax [2]: 171 ng/mL

SMILES: N#Cc1ccc(CCNC(=O)[C@@H]2CCCN(c3cc(N4CCC(CO)CC4)nc(C(F)(F)F)n3)C2)cc1 [Compound 308, (R)—N-(4-cyanophenethyl)-1-(6-(4-(hydroxymethyl)piperidin-1-yl)-2-(trifluoromethyl)pyrimidin-4-yl)piperidine-3-carboxamide]
- EC50 [1]: 0.1 to 0.999 µM
- Cmax [2]: 18 ng/mL

SMILES: N#Cc1ccc(CCNC(=O)[C@@H]2CCN2c2cc(N3CCC(CCCC(=O)NCCS(=O)(=O)O)CC3)nc(C(F)(F)F)n2)cc1 [Compound 249, (S)-2-(4-(1-(6-(2-((4-cyanophenethyl)carbamoyl)azetidin-1-yl)-2-(trifluoromethyl)pyrimidin-4-yl)piperidin-4-yl)butanamido)ethanesulfonic acid]
- EC50 [1]: < 0.1 µM
- Cmax [2]: 3.4 ng/mL

Reference: patent US10654834B2 (Venenum Biodesign, LLC, priority 2016, dated 2020)
